One assay concerns the target T1, rat TRPV3 (Rattus norvegicus, UniProt Q4QYD9).
T1 construct: expressed in transfected cells; host or cells: HEK-293
T1 sequence (Q4QYD9 1-791): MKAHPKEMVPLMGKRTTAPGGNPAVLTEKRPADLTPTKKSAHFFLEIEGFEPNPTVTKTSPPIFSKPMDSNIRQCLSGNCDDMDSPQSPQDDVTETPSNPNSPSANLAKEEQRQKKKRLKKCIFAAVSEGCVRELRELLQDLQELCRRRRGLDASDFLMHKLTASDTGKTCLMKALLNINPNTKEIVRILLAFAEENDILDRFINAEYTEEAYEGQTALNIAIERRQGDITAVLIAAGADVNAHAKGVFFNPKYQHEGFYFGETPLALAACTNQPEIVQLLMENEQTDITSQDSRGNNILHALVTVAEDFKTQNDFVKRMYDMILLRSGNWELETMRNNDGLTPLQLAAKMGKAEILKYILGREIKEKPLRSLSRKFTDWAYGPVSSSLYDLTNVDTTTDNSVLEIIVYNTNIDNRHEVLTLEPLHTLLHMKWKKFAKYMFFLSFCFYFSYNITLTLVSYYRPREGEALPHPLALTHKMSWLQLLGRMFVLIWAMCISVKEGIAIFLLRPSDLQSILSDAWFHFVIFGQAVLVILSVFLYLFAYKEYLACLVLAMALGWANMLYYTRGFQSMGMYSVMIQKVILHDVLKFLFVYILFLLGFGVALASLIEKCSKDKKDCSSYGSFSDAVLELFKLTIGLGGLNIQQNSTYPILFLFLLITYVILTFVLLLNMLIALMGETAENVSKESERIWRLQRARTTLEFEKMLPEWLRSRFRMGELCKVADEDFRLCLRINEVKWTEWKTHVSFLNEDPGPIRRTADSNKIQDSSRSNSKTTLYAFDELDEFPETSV
Put plainly: TRPV3-mediated elevation of intracellular Ca2+ (Fluo-4) in transfected HEK-293 cells. Type of assay: cell-based. The conditions noted are these: for IC50: antagonist/desensitizing, compound added 5 min before agonist thymol 100 μM; for EC50: half-maximal increase in [Ca2+]i, HEK-293, read-out: TRPV3 Potency EC50; for TRPV3 Efficacy (% IM 4 μM): percentage of the response to ionomycin 4 μM, cells sensitized with 2-aminoethoxydiphenyl borate 100 μM. Here is the method:
Effects of compounds on intracellular Ca^2+ concentration ([Ca^2+]i) were determined using Fluo-4, a selective intracellular fluorescent probe for Ca ^2+. Assays of rat TRPA1, TRPV2, TRPV3, TRPV4, and TRPM8 or human TRPV1 mediated elevation of intracellular Ca ^2+ in transfected HEK-293 cells were performed with a continuous monitoring of [Ca ^2+]i during the experiments. Briefly, human embryonic kidney (HEK-293) cells, stably transfected with rat TRPA1, TRPV2, TRPV3, TRPV4, and TRPM8 or human TRPV1 (selected by geneticin 600 μg mL ^−1) or not transfected, were cultured in EMEM+ 2 mM glutamine + 1% nonessential amino acids +10% FBS and maintained at 37 °C with 5% CO2. TRP-HEK-293 cells express stably high levels of TRP transcripts, while these transcripts were virtually absent in wild-type HEK-293 cells as checked by real-time PCR. On the day of the experiment, the cells were loaded for 1 h in the dark at room temperature with Fluo-4 AM (4 μM in DMSO containin 0.02% Pluronic F-127). The cells were rinsed, resuspended in Tyrode’s solution (145 mM NaCl, 2.5 mM KCl, 1.5 mM CaCl2, 1.2 mM MgCl2, 10 mM D-glucose, and 10 mM HEPES, pH 7.4), and transferred to a quartz cuvette of a spectrofluorimeter (PerkinElmer LS50B; λEX = 488 nm, λEM = 516 nm) equipped with a PTP-1 fluorescence Peltier system (PerkinElmer Life and Analytical Sciences, Waltham, MA, USA) under continuous stirring. Cell fluorescence before and after the addition of various concentrations of test compounds was measured, normalizing the effects against the response to ionomycin (IM, 4 μM). The values of the effect on [Ca^2+]i in HEK-293 cells not transfected were used as baseline and subtracted from the values obtained from transfected cells. For TRPA1, agonist efficacy was expressed as a percentage of the effect on [Ca ^2+]i observed with 100 μM allylisothiocyanate. The potency of the compounds (EC50 values) is determined as the concentration required to produce half-maximal increases in [Ca ^2+]i. In the TRPV3 assay, TRPV3-expressing HEK293 cells were first sensitized with the structurally unrelated agonist 2-aminoethoxydiphenyl borate (100 μM). Antagonist/desensitizing behavior is evaluated against the agonist of the TRP analyzed by adding the compounds directly in the quartz cuvette 5 min before stimulation of cells with the agonist. Allylisothiocyanate (100 μM) was used for TRPA1, capsaicin (0.1 μM) for TRPV1, cannabidiol (2 μM) for TRPV2, thymol (100 μM) for TRPV3, GSK1016790A (10 nM) for TRPV4, and icilin (0.25 μM) for TRPM8. The IC50 value was expressed as the concentration exerting a half-maximal inhibition of agonist effect, taking as 100% the effect on [Ca^2+]i exerted by the agonist alone. Dose-response curve fitting (sigmoidal dose-response variable slope) and parameter estimation were performed with Graph-Pad Prism8 (GraphPad Software Inc., San Diego, CA, USA). All determinations were performed at least in triplicate.

Another assay deals with T2, rat TRPV4 (Rattus norvegicus, UniProt Q9ERZ8).
T2 construct: expressed in transfected cells; host or cells: HEK-293
T2 sequence (Q9ERZ8 whole entry): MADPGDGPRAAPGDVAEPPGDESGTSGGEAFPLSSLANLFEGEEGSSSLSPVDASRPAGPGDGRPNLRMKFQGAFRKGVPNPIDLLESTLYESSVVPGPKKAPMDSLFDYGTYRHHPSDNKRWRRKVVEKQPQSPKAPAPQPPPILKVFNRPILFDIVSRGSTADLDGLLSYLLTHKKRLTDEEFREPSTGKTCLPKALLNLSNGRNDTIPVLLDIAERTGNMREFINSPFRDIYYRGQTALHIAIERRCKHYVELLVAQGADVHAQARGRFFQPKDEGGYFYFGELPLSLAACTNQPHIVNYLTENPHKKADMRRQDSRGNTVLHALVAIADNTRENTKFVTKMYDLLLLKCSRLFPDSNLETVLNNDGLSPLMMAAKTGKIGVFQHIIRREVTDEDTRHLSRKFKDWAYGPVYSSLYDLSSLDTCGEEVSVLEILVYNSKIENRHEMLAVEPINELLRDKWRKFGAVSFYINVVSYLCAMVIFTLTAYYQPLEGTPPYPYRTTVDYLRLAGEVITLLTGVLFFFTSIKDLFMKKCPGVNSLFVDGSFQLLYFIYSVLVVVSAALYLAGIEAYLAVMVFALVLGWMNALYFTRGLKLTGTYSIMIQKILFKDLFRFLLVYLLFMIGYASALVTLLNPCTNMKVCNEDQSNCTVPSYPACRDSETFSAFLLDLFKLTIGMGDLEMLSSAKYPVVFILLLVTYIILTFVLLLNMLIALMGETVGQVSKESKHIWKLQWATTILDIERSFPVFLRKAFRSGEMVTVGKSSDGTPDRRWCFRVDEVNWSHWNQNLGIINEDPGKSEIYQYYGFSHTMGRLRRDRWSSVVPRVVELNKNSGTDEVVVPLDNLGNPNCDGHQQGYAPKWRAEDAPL
Put plainly: TRPV4-mediated elevation of intracellular Ca2+ (Fluo-4) in transfected HEK-293 cells. The assay is classed as cell-based. The conditions noted are these: for TRPV4 Efficacy (% IM 4 μM): percentage of the response to ionomycin 4 μM. Here is the method:
Assays of rat TRPA1, TRPV2, TRPV3, TRPV4, and TRPM8 or human TRPV1 mediated elevation of intracellular Ca ^2+ in transfected HEK-293 cells were performed with a continuous monitoring of [Ca ^2+]i during the experiments. […] Cell fluorescence before and after the addition of various concentrations of test compounds was measured, normalizing the effects against the response to ionomycin (IM, 4 μM). The values of the effect on [Ca^2+]i in HEK-293 cells not transfected were used as baseline and subtracted from the values obtained from transfected cells. For TRPA1, agonist efficacy was expressed as a percentage of the effect on [Ca ^2+]i observed with 100 μM allylisothiocyanate. […] In the TRPV3 assay, TRPV3-expressing HEK293 cells were first sensitized with the structurally unrelated agonist 2-aminoethoxydiphenyl borate (100 μM). Antagonist/desensitizing behavior is evaluated against the agonist of the TRP analyzed by adding the compounds directly in the quartz cuvette 5 min before stimulation of cells with the agonist. […] Dose-response curve fitting (sigmoidal dose-response variable slope) and parameter estimation were performed with Graph-Pad Prism8 (GraphPad Software Inc., San Diego, CA, USA). All determinations were performed at least in triplicate.

Setting [1] is: antagonist/desensitizing, compound added 5 min before agonist GSK1016790A 10 nM, read-out: IC50 TRPV4.

The values below come from paper PMC8391922, “The Combined Effect of Branching and Elongation on the Bioactivity Profile of Phytocannabinoids. Part I: Thermo-TRPs” (Biomedicines, 2021).

Structures are written as SMILES. Where two headings read alike, the source gives them in different places.

Broadly, the IC50 is the concentration that gives 50% inhibition. The EC50 is the concentration at which the effect is half-maximal. As to `C=C(C)[C@@H]1CCC(C)=C[C@H]1c1c(O)cc(C(C)(C)CCCCCC)cc1O` [1b, Depentyl-α,α-dimethylheptyl-cannabidiol], at rat TRPV3, the 50% inhibitory concentration (IC50) stood at 32.6 ± 5.1 µM, the EC50 was determined as 11 ± 1.1 µM and the “TRPV3 Efficacy (% IM 4 μM)” value is 15.8 ± 0.4%. Further, the IC50 on rat TRPV4 (setting [1]) was over 100 µM. Besides, the “TRPV4 Efficacy (% IM 4 μM)” value at rat TRPV4 (HEK-293) came to 34.0 ± 1.3%.
On to `CCCCCCC(C)(C)c1cc(O)c(C/C=C(\C)CCC=C(C)C)c(O)c1` [7b, Depentyl-α,α-dimethylheptyl-cannabigerol], for which the results for the IC50 on rat TRPV3 and on rat TRPV4 (setting [1]) were 35.4 ± 3.6 µM and 35.4 ± 3.2 µM, respectively. Moreover, the EC50 at rat TRPV3 was 39.7 ± 0.03 µM; at rat TRPV4 (half-maximal increase in [Ca2+]i, HEK-293, read-out: TRPV4 Potency EC50), 39 ± 21.6 µM. At rat TRPV3, the “TRPV3 Efficacy (% IM 4 μM)” value came to 64.6 ± 4.8%. The “TRPV4 Efficacy (% IM 4 μM)” value at rat TRPV4 (HEK-293) is given as 34.4 ± 5.2%.
In the case of `CCCCCCC(C)(C)c1cc(O)c2c(c1)OC(C)(CCC=C(C)C)C=C2` (stereo not drawn) [8b, Depentyl-α,α-dimethylheptyl-cannabichromene], on rat TRPV3, the IC50 was over 50 µM, the EC50 is over 50 µM and the “TRPV3 Efficacy (% IM 4 μM)” value was 41.6 ± 1.8%. Besides, the IC50 against rat TRPV4 is over 100 µM. In addition, on rat TRPV4 (HEK-293), the “TRPV4 Efficacy (% IM 4 μM)” value was under 10%.
Take `CCCCCCCc1cc(O)c2c(c1)OC(C)(CCC=C(C)C)C=C2` (stereo not drawn) [8c, Depentyl-5-n-heptylcannabichromene]: the IC50 on rat TRPV3 and on rat TRPV4 (setting [1]) was over 100 µM in each case. In addition, the “TRPV3 Efficacy (% IM 4 μM)” value at rat TRPV3 is listed as under 10%. At rat TRPV4 (HEK-293), the “TRPV4 Efficacy (% IM 4 μM)” value is reported as under 10%.
Consider `CCCCC(C)(C)c1cc(O)c2c(c1)OC(C)(CCC=C(C)C)C=C2` (stereo not drawn) [8d, Depentyl-5-α,α-dimethylpentylcannabichromene], for which, at rat TRPV3, the IC50 is over 100 µM and the “TRPV3 Efficacy (% IM 4 μM)” value was under 10%. At rat TRPV4 (setting [1]), the half-maximal inhibitory concentration (IC50) is over 100 µM. In addition, the “TRPV4 Efficacy (% IM 4 μM)” value at rat TRPV4 (HEK-293) is given as under 10%.
